Laboratory results from US20260297542A1, “HERBICIDE RESISTANT PLANTS” (SYNGENTA CROP PROTECTION AG, priority 2023, published 2026).

Target: T1, His-TEV-AtPPO1 ΔcTP V002 (SEQ ID NO: 373) (Arabidopsis thaliana, UniProt P55826, L479M/S305L/Y426V)
T1 construct: with cTPs removed; made in house; host or cells: E. coli BL21 (DE3), His GraviTrap, partially purified
T1 sequence (P55826 with tags, fused parts or gaps S305L/Y426V/L479M): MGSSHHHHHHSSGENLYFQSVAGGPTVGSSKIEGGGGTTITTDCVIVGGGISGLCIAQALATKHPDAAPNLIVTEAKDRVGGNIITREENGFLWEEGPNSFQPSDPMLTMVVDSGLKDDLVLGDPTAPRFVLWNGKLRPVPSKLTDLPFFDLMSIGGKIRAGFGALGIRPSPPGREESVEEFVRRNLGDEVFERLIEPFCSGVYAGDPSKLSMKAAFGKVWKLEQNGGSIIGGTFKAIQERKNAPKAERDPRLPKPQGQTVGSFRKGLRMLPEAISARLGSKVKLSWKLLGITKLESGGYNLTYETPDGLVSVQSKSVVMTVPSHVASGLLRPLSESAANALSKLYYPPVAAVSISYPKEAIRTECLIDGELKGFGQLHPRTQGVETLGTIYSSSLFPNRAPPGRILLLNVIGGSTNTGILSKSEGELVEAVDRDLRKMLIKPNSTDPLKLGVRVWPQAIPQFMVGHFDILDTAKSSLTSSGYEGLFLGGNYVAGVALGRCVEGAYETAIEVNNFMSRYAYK
Assay: activity rate of PPO variant in in vitro assay
Format: biochemical
Conditions: role: substrate; 1 uM protoporphyrinogen IX; no inhibitor
Excerpt: A pET24 plasmid containing a DNA sequence encoding variants of AtPPO1 derived from Arabidopsis thaliana with cTPs removed and both a 6×His tag and TEV protease cleavage tag added at the N-terminus, codon-optimised for expression in E. coli, and under control of a T7 promoter, was synthesised by Twist Bioscience. The following variants were synthesised: WT AtPPO1 (SEQ ID NO: 370), AtPPO1 L479M (SEQ ID NO: 371), AtPPO1 L479N (SEQ ID NO: 372), AtPPO1 S305L Y426V (SEQ ID NO: 374) and AtPPO1 S305L Y426V L479M (SEQ ID NO: 373). This plasmid was expressed in E. coli BL21 (DE3) with 50 μg/mL kanamycin selection. 10 mL of overnight cultures grown at 37° C. were used to inoculate 1 L AIM (AIM-Terrific Broth Base including Trace elements, Formedium) in 2 L shake flasks. Cultures were grown at 37° C., 200 rpm for 3 hours and then overnight at 26° C. Cells were harvested centrifugation. 5-15 g of cell pellet was lysed in and resuspended in ratio of 1:1.5 in lysis buffer (20 mM Tris pH8, 500 mM sodium chloride, 10% glycerol, 1× complete Protease EDTA-free Inhibitor Tablet (Roche), 10 mM imidazole). The resuspension was sonicated at 75% using 10 cycles of 30 seconds, 40 seconds off. After sonication Triton X-100 was added to the lysates at a final concentration of 0.5%. The lysates were centrifuged at 20,000 rpm for 25 min at 4° C. Cleared lysates were loaded on His GraviTrap (Cytiva) columns, washed with 20 mL of lysis buffer and eluted in elution buffer (20 mM Tris pH8, 500 mM sodium chloride, 10% glycerol, 200 mM imidazole, 0.03% (v/v) Triton X-100). The eluate was desalted on a PD10 column and 2.5-3.2 mL was collected. Protein concentration was measured and calculated using the absorbance at 280 nm. Extracts were diluted 1 in 4 and 10 uL was analysed by SDS PAGE.
Partially purified Protoporphyrinogen Oxidase enzymes were assayed for activity using fluorescence adapted from the method of Shepherd & Dailey (Anal Biochem. 2005 344(1) 115-121). The assay was performed in black 384 well plates with a clear bottom and the total volume of the reaction mixture was 91 ul. The final assay mixture contained 100 mM K2HPO4 pH7.2, 1 mM Na2EDTA, 5 mM DTT, 20% glycerol (v/v), 0.05% Tween 20 (v/v), 1.1% DMSO (v/v), 1 uM protoporphyrinogen IX and 1.5 nM enzyme. Compounds were dissolved in DMSO at 1 mM and a 4-fold serial dilution carried out to give 8 rates. 1 ul was added to the assay mixture. This gave final compound concentrations of 11, 2.7, 0.69, 0.17, 0.04, 0.01, 0.002, 0.0007 uM. Enzyme and inhibitor were preincubated for 5 minutes prior to starting the reaction with the addition of the substrate. […] IC50s were calculated using GraphPad Prism 7.05 nonlinear regression (Table 6). Each compound was tested in duplicate.

`C=Cc1c2[nH]c(c1C)Cc1[nH]c(c(CCC(=O)O)c1C)Cc1[nH]c(c(C)c1CCC(=O)O)Cc1[nH]c(c(C)c1C=C)C2` [protoporphyrinogen IX] showed a Rate of 7.6 rfu second^−1 pmole^−1.
